Tests used:
[1] = system: normal NK cells expanded with K562-aAPC; assay: percent inhibition of viability; higher = more inhibition; conditions: 72 h, IL-2 2.5 ng/mL
Experimental: (§1)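 Drug sensitivity and resistance testing on K562-aAPC-expanded normal NK cells: 5 concentrations (10-fold steps over a 10,000-fold range), 72 h at 37 °C, viability by CellTiter-Glo normalised to DMSO and benzethonium chloride controls; DSS from the fitted curve.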

[2] = system: DERL-7 (IL-2 2.5 ng/mL); assay: as above; conditions: 72 h
[3] = system: IMC-1 (IL-2 20 ng/mL); assay: as above; conditions: 72 h
[4] = system: KAI3 (IL-2 2.5 ng/mL); assay: as above; conditions: 72 h
[5] = system: KHYG-1 (IL-2 2.5 ng/mL); assay: as above; conditions: 72 h
[6] = system: NK-92 (IL-2 2.5 ng/mL); assay: as above; conditions: 72 h
[7] = system: NK-YS (IL-2 2.5 ng/mL); assay: as above; conditions: 72 h
[8] = system: NKL (IL-2 2.5 ng/mL); assay: as above; conditions: 72 h
[9] = system: SNK-6 (IL-2 2.5 ng/mL); assay: as above; conditions: 72 h
[10] = system: YT (IL-2 2.5 ng/mL); assay: as above; conditions: 72 h
[11] = system: normal primary NK cells, pool 1 (3 donors) (IL-2 2.5 ng/mL); assay: as above; conditions: 72 h
[12] = system: normal primary NK cells, pool 1 (3 donors), resting (IL-2 0 ng/mL); assay: as above; conditions: 72 h
[13] = system: normal primary NK cells, pool 2 (3 donors) (IL-2 2.5 ng/mL); assay: as above; conditions: 72 h
[14] = system: normal primary NK cells, pool 3 (3 donors) (IL-2 2.5 ng/mL); assay: as above; conditions: 72 h
[15] = system: normal NK cells expanded with K562-aAPC; assay: drug sensitivity score (DSS) (DSS units); higher = more sensitive; extreme values may be limits of the assay; conditions: 72 h; IL-2 2.5 ng/mL
Experimental: as §1

[16] = system: DERL-7 (IL-2 2.5 ng/mL); assay: as above; conditions: 72 h
[17] = system: IMC-1 (IL-2 20 ng/mL); assay: as above; conditions: 72 h
[18] = system: KAI3 (IL-2 2.5 ng/mL); assay: as above; conditions: 72 h
[19] = system: KHYG-1 (IL-2 2.5 ng/mL); assay: as above; conditions: 72 h
[20] = system: NK-92 (IL-2 2.5 ng/mL); assay: as above; conditions: 72 h
[21] = system: NK-YS (IL-2 2.5 ng/mL); assay: as above; conditions: 72 h
[22] = system: NKL (IL-2 2.5 ng/mL); assay: as above; conditions: 72 h
[23] = system: SNK-6 (IL-2 2.5 ng/mL); assay: as above; conditions: 72 h
[24] = system: YT (IL-2 2.5 ng/mL); assay: as above; conditions: 72 h
[25] = system: normal primary NK cells, pool 1 (3 donors) (IL-2 2.5 ng/mL); assay: as above; conditions: 72 h
[26] = system: normal primary NK cells, pool 1 (3 donors), resting (IL-2 0 ng/mL); assay: as above; conditions: 72 h
[27] = system: normal primary NK cells, pool 2 (3 donors) (IL-2 2.5 ng/mL); assay: as above; conditions: 72 h
[28] = system: normal primary NK cells, pool 3 (3 donors) (IL-2 2.5 ng/mL); assay: as above; conditions: 72 h

Cc1ccc(NC(=O)c2ccc(CN3CCN(C)CC3)cc2)cc1Nc1nccc(-c2cccnc2)n1 [Imatinib] (max concentration tested 10000 nM)
percent inhibition of viability [%]
Conditions	1 nM	10 nM	100 nM	1000 nM	10000 nM
[1]	-6.85	-3.28	-7.18	1.24	91.6
[2]	0.4	-1.51	5.95	10.5	87.7
[3]	-6.61	-9.38	0.61	-5.6	101
[4]	-2.16	-7.49	-4.01	-0.85	74.1
[5]	-2.34	-9.57	-7.02	0.18	101
[6]	-3.36	0.75	-2.9	7.24	63.5
[7]	0.66	-5.53	-1.76	2.33	70.3
[8]	-12.3	-12.6	-18.4	-6.32	71.4
[9]	-9.34	-11	-25.2	-21.8	56.1
[10]	-0.33	-5.36	0.48	5.22	96.3
[11]	-6.14	-4.91	10.5	15.8	64.8
[12]	-3.96	-13.2	7.28	11.9	79
[13]	-11.8	-13	3.62	7.57	37.4
[14]	-7.45	-5.71	-0.28	8.35	31.7

Conditions	drug sensitivity score
[15]	5.26
[16]	6.62
[17]	5.24
[18]	4.02
[19]	5.74
[20]	4.67
[21]	4.18
[22]	3.47
[23]	2.14
[24]	6.1
[25]	5.78
[26]	6.38
[27]	3.04
[28]	2.67

CS(=O)(=O)c1ccc(C2=C(c3ccccc3)C(=O)OC2)cc1 [Rofecoxib] (max concentration tested 10000 nM)
percent inhibition of viability [%]
Conditions	1 nM	10 nM	100 nM	1000 nM	10000 nM
[1]	10.3	5.54	3.01	2.73	3.42
[2]	6.85	-1.97	-3.99	2.79	0.07
[3]	2.54	0.06	3	-1.23	3.31
[4]	8.75	4.53	5.34	3.57	-3.77
[5]	0.01	1.72	2.69	2.11	2.37
[6]	11.4	-0.5	-4.39	-1.55	-5.21
[7]	3.55	-3.6	-2.98	3.34	-0.78
[8]	11.4	9.36	8.93	4.19	9.11
[9]	8.2	18.3	4.94	9.79	3.14
[10]	5.17	5.42	4.83	4.08	6.74
[11]	-5.06	-9.08	-8.33	2.49	0.6
[12]	-13.7	-25.3	-34.2	-6.69	-25.9
[13]	-7.81	1.86	-6.15	-8.51	-5.43
[14]	-7.45	-5.99	-3.42	-7.23	-12.4

Conditions	drug sensitivity score
[15]	0
[16]	0
[17]	0
[18]	0
[19]	0
[20]	0
[21]	0
[22]	0
[23]	0
[24]	0
[25]	0
[26]	0
[27]	0
[28]	0
